Test results as given in ChEMBL document CHEMBL1201862, “PubChem BioAssay data set” (2004).
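In this assay, cells in 96-well plates receive the compound at five concentrations for 48 hours. Endpoints are linearly interpolated between the surrounding concentrations. Here, GI50 denotes the concentration required for 50% inhibition of growth.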 Active and inactive are the calls of the source. Rule as the data show it: active = GI50 up to about 1.1 µM and inactive = higher.

Columns and labels:
Experiment in all cases: NCI anticancer screen, dose series, 48 h
RXF 631 = system: RXF 631
DMS-114 = system: DMS-114
DMS-273 = system: DMS-273
M19-MEL = system: M19-MEL
SNB-78 = system: SNB-78
DLD-1 = system: DLD-1
HOP-18 = system: HOP-18
XF498 = system: XF498
LXFL 529 = system: LXFL 529

Measured: GI50

CC(=O)c1c(C)[n+]([O-])c2cc(C)c(C)cc2[n+]1[O-]
inactive: RXF 631 > 100 µM | DMS-114 > 100 µM | DMS-273 > 100 µM | M19-MEL > 100 µM | SNB-78 > 100 µM | DLD-1 > 100 µM | HOP-18 > 100 µM | XF498 > 100 µM | LXFL 529 > 100 µM

COc1cc2c3c(c1OC)-c1cc4c(cc1CC3(C#N)N(C(=O)c1ccccc1)CC2)OCO4 (centres undefined)
inactive: DMS-114 26.5 µM | DMS-273 21.6 µM | M19-MEL 46.8 µM | SNB-78 11.4 µM | DLD-1 > 55.7 µM | HOP-18 21.2 µM | XF498 6.25 µM | LXFL 529 17.7 µM

Nc1nc2c(ncn2CCOC(c2ccccc2)P(=O)(O)O)c(=O)[nH]1 (centres undefined)
inactive: DMS-273 > 100 µM | SNB-78 > 100 µM | DLD-1 > 100 µM | LXFL 529 > 100 µM

COC(=O)C(=O)C(/C(=N/N)C(=O)Nc1ccccc1C(N)=O)c1nc2ccc([N+](=O)[O-])cc2nc1O (centres undefined)
inactive: DMS-114 > 100 µM | DMS-273 > 100 µM | M19-MEL > 100 µM | SNB-78 > 100 µM | DLD-1 > 100 µM | XF498 > 100 µM | LXFL 529 > 100 µM

Cc1ccc([N+](=O)[O-])c2c(NCCCN(C)C)ccnc12
inactive: SNB-78 55.7 µM

O=C1OCc2nc3c(c(-c4ccccc4C(F)(F)F)c21)C(=O)OC3
inactive: DMS-114 > 100 µM | DMS-273 > 100 µM | M19-MEL > 100 µM | SNB-78 > 100 µM | DLD-1 > 100 µM | HOP-18 > 100 µM | LXFL 529 > 100 µM

COc1ccccc1C1C(C(=O)Nc2ccccc2)=C(C)NC(C)=C1C(=O)Nc1ccccc1
inactive: RXF 631 62.8 µM | DMS-114 41.8 µM | DMS-273 34 µM | M19-MEL 50.6 µM | SNB-78 > 100 µM | HOP-18 > 100 µM | XF498 36.3 µM | LXFL 529 61.5 µM

O=[N+]([O-])c1ccc(C2N3CCCCC3[C@H]3CCCCN23)cc1 (some centres undefined)
inactive: RXF 631 > 100 µM | DMS-273 > 100 µM | M19-MEL > 100 µM | SNB-78 > 100 µM | DLD-1 > 100 µM | HOP-18 > 100 µM | XF498 > 100 µM | LXFL 529 > 100 µM

O=Cn1c2ccccc2c2ccccc21
inactive: DMS-114 > 100 µM | DMS-273 > 100 µM | M19-MEL > 100 µM | SNB-78 > 100 µM | DLD-1 > 100 µM | HOP-18 9.64 µM | XF498 36.1 µM | LXFL 529 > 100 µM

NC(=O)NNC(=O)CCn1[nH]c(=O)c(Cl)c(Cl)c1=O
inactive: RXF 631 > 100 µM | DMS-114 > 100 µM | DMS-273 > 100 µM | M19-MEL > 100 µM | SNB-78 > 100 µM | DLD-1 > 100 µM | HOP-18 > 100 µM | LXFL 529 > 100 µM

COc1ccc(C2=Nc3ccccc3SC(C)C2)cc1 (centres undefined)
inactive: RXF 631 68.4 µM | DMS-114 73.3 µM | DMS-273 78.7 µM | M19-MEL 94.6 µM | SNB-78 > 100 µM | DLD-1 81.8 µM | LXFL 529 85.1 µM

O=c1[nH]c2nc3ccccc3c(=O)n2nc1Cc1ccccc1
inactive: DMS-114 > 100 µM | DMS-273 > 100 µM | SNB-78 > 100 µM | DLD-1 > 100 µM | LXFL 529 > 100 µM

O=C1OC2(OC2c2ccccc2)c2ccccc21 (centres undefined)
inactive: DMS-114 1.32 µM | DMS-273 > 100 µM | M19-MEL > 100 µM | DLD-1 > 100 µM | XF498 > 100 µM | LXFL 529 > 100 µM

O=C(NCc1ccccc1)c1cc2ccc(O)c(O)c2cn1
inactive: DMS-114 12.8 µM | DMS-273 17.4 µM | M19-MEL 1.8 µM | SNB-78 18.1 µM | DLD-1 18.5 µM | HOP-18 20.7 µM | XF498 17.4 µM | LXFL 529 16.9 µM

Cc1c2c(cc3c1C(=O)C(=O)C1=C3OC[C@@H]1C)C(C)(C)CCC2
inactive: DMS-114 16.8 µM | DMS-273 14.4 µM | M19-MEL 2.64 µM | DLD-1 18.7 µM | HOP-18 17.1 µM | XF498 29.9 µM | LXFL 529 16 µM

COc1ccc(C2C(Cl)C(=O)N2n2cnc3ccccc3c2=O)cc1 (centres undefined)
inactive: DMS-114 72.8 µM | DMS-273 82.4 µM | M19-MEL 76 µM | SNB-78 > 100 µM | DLD-1 > 100 µM | HOP-18 24.2 µM | XF498 > 100 µM | LXFL 529 62.1 µM

CCc1cccc(C)c1NC(=O)C1=C(C)NC(C)=C(C(=O)Nc2c(C)cccc2CC)C1c1ccc2c(c1)OCO2
inactive: RXF 631 20 µM | DMS-114 16.2 µM | M19-MEL 21.4 µM | SNB-78 25.8 µM | DLD-1 20.5 µM | XF498 15.7 µM | LXFL 529 18.2 µM

O=C(NCc1ccccc1)C1C(=O)C(=O)N(Cc2ccccc2)C1=O (centres undefined)
inactive: RXF 631 > 100 µM | DMS-273 > 100 µM | M19-MEL > 100 µM | SNB-78 > 100 µM | DLD-1 > 100 µM | HOP-18 > 100 µM | LXFL 529 > 100 µM

CCOc1ccccc1NC(=O)CC1C(=O)Nc2ccccc2[S+]1[O-] (centres undefined)
inactive: DMS-114 > 100 µM | DMS-273 66.5 µM | M19-MEL > 100 µM | SNB-78 > 100 µM | DLD-1 > 100 µM | XF498 44.8 µM | LXFL 529 56.8 µM

CCCCNC1CCCCC[C@H]1O (some centres undefined)
inactive: DMS-114 > 100 µM | DMS-273 > 100 µM | M19-MEL > 100 µM | SNB-78 > 100 µM | DLD-1 > 100 µM | HOP-18 > 100 µM | LXFL 529 > 100 µM

C/C(=C\C(C)COCc1ccccc1)[C@H](COCc1ccccc1)OCc1ccccc1 (some centres undefined)
inactive: RXF 631 > 100 µM | DMS-114 57.5 µM | DMS-273 > 100 µM | M19-MEL > 100 µM | SNB-78 > 100 µM | XF498 8.53 µM | LXFL 529 82 µM

CCC1C(=O)OCc2c1cc1n(c2=O)Cc2ccccc2-1 (centres undefined)
inactive: RXF 631 > 100 µM | DMS-114 > 100 µM | DMS-273 > 100 µM | M19-MEL > 100 µM | SNB-78 > 100 µM | DLD-1 > 100 µM | HOP-18 > 100 µM | XF498 > 100 µM | LXFL 529 > 100 µM

O=C1CCc2ccc(O)c(c2)Oc2ccc(cc2)[C@@H]2O[C@@H]2CO1
inactive: DMS-114 20 µM | M19-MEL 38.1 µM | DLD-1 55.8 µM | HOP-18 25.6 µM | XF498 5.26 µM | LXFL 529 33.2 µM
